Source: the supplement of paper PMC10307832

Assays:
Test in all cases: relative viability (nuclei count vs DMSO), 5 days (fraction); higher = more cells survive
Ibrutinib + Tozasertib = compound: C=CC(=O)N1CCC[C@@H](n2nc(-c3ccc(Oc4ccccc4)cc3)c3c(N)ncnc32)C1 [Ibrutinib] + Cc1cc(Nc2cc(N3CCN(C)CC3)nc(Sc3ccc(NC(=O)C4CC4)cc3)n2)n[nH]1 [Tozasertib] (partner 0.1 µM)
In short: (§1)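 Lung cancer cell lines were pin-tool dosed in 1536-well plates on the day after seeding, with either a lone drug or a fixed anchor-drug dose plus five library-drug doses (not always all listed) in √10 steps. Nuclei were counted on 4× images after 5 days. Relative viability is the ratio of treated-well to vehicle-well nuclei counts, with each value a median of duplicate plates.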

BMX-IN-1 + OSI-027 = compound: C=CC(=O)Nc1cc(-n2c(=O)ccc3cnc4ccc(-c5ccc(NS(C)(=O)=O)cc5)cc4c32)ccc1C [BMX-IN-1] + COc1cccc2cc(-c3nc([C@H]4CC[C@H](C(=O)O)CC4)n4ncnc(N)c34)[nH]c12 [OSI-027] (partner 0.5 µM)
In short: as §1

PAC-1 + Pictilisib = compound: C=CCc1cccc(/C=N/NC(=O)CN2CCN(Cc3ccccc3)CC2)c1O [PAC-1] + CS(=O)(=O)N1CCN(Cc2cc3nc(-c4cccc5[nH]ncc45)nc(N4CCOCC4)c3s2)CC1 [Pictilisib] (partner 1 µM)
In short: as §1

PAC-1 + Vorinostat = compound: C=CCc1cccc(/C=N/NC(=O)CN2CCN(Cc3ccccc3)CC2)c1O [PAC-1] + O=C(CCCCCCC(=O)Nc1ccccc1)NO [Vorinostat] (partner 1 µM)
In short: as §1

| Cell Line | relative viability (Ibrutinib + Tozasertib; first compound 0.005 µM) | relative viability (Ibrutinib + Tozasertib; first compound 0.01581 µM) | relative viability (Ibrutinib + Tozasertib; first compound 0.05 µM) | relative viability (Ibrutinib + Tozasertib; first compound 0.1581 µM) | relative viability (Ibrutinib + Tozasertib; first compound 0.5 µM) | relative viability (BMX-IN-1 + OSI-027; first compound 0.02 µM) | relative viability (BMX-IN-1 + OSI-027; first compound 0.2 µM) | relative viability (BMX-IN-1 + OSI-027; first compound 0.6325 µM) | relative viability (BMX-IN-1 + OSI-027; first compound 2 µM) | relative viability (PAC-1 + Pictilisib; first compound 0.02 µM) | relative viability (PAC-1 + Pictilisib; first compound 0.06325 µM) | relative viability (PAC-1 + Pictilisib; first compound 0.2 µM) | relative viability (PAC-1 + Pictilisib; first compound 2 µM) | relative viability (PAC-1 + Vorinostat; first compound 0.02 µM) | relative viability (PAC-1 + Vorinostat; first compound 0.06325 µM) | relative viability (PAC-1 + Vorinostat; first compound 0.2 µM) | relative viability (PAC-1 + Vorinostat; first compound 2 µM) |
| --- | --- | --- | --- | --- | --- | --- | --- | --- | --- | --- | --- | --- | --- | --- | --- | --- | --- |
| NCI-H2023 | 0.388 | 0.303 | 0.324 | 0.394 | 0.324 | 0.448 | 0.434 | 0.418 | 0.244 | 0.224 | 0.262 | 0.213 | 0.258 | 0.741 | 0.605 | 0.495 | 0.474 |
| LC-2-ad | 0.497 | 0.413 | 0.388 | 0.449 | 0.382 | 0.872 | 0.918 | 0.768 | 0.841 | 0.523 | 0.588 | 0.511 | 0.56 | 0.743 | 0.632 | 0.691 | 0.698 |
| NCI-H1975 | 0.82 | 0.688 | 0.695 | 0.806 | 0.403 | 0.873 | 0.741 | 1.04 | 0.696 | 0.281 | 0.304 | 0.308 | 0.303 | 0.71 | 0.713 | 0.765 | 0.77 |
| NCI-H1793 |  | 0.288 | 0.254 | 0.462 | 0.208 | 0.271 | 0.281 | 0.324 | 0.332 | 0.344 | 0.345 | 0.254 | 0.332 | 0.653 | 0.814 | 0.741 | 0.894 |
| Calu-6 |  |  |  |  |  |  |  |  |  | 0.857 | 0.82 | 0.875 | 0.833 |  |  |  |  |
| HCC-366 | 0.127 | 0.116 | 0.107 | 0.118 | 0.0964 | 1.06 | 1.14 | 1.13 | 1.12 | 0.203 | 0.142 | 0.149 | 0.184 | 0.396 | 0.339 | 0.258 | 0.449 |
| NCI-H2347 |  | 0.643 | 0.739 | 0.532 | 0.548 | 0.39 | 0.356 | 0.525 | 0.38 | 0.51 | 0.723 | 0.604 | 0.591 | 0.589 | 0.593 | 0.606 | 0.657 |
| NCI-H2405 | 0.85 | 0.739 | 0.798 | 0.75 | 0.717 | 0.647 | 0.63 | 0.605 | 0.634 | 0.44 | 0.455 | 0.45 | 0.376 | 1.05 | 1.12 | 1.14 | 1.15 |
| HCC-44 | 1.1 | 0.945 | 0.734 |  | 0.998 | 0.617 | 0.515 | 0.56 | 0.474 | 0.455 | 0.697 | 0.666 | 0.648 | 1.11 | 1.05 | 1.03 | 1.09 |
| NCI-H1563 |  |  |  |  |  | 0.838 | 0.757 | 0.697 | 0.642 | 0.641 | 0.695 | 0.752 | 0.63 |  |  |  |  |
| NCI-H1666 | 0.628 | 0.59 | 0.602 | 0.583 | 0.536 | 0.948 | 1.01 | 0.843 | 0.951 | 0.501 | 0.398 | 0.358 | 0.427 | 1.08 | 1.03 | 1 | 1.09 |
| NCI-H650 | 0.783 | 0.672 | 0.758 | 0.808 | 0.782 | 0.511 | 0.508 | 0.594 | 0.531 | 1.07 | 0.951 | 0.86 | 0.874 | 0.494 | 0.36 | 0.442 | 0.395 |
| EPLC-272H | 0.171 | 0.171 | 0.25 | 0.126 | 0.193 | 0.262 | 0.261 | 0.323 | 0.314 |  | 0.349 | 0.32 | 0.268 | 0.457 | 0.3 | 0.309 | 0.225 |
| LXF-289 | 0.22 | 0.192 | 0.164 | 0.248 | 0.197 | 0.878 | 0.766 | 1.1 | 0.838 | 0.846 | 0.727 | 0.739 | 0.792 | 0.793 | 0.765 | 0.731 | 0.732 |
| LOU-NH91 | 0.699 | 0.582 | 0.581 | 0.648 | 0.488 | 0.717 |  | 0.772 | 0.679 | 0.494 | 0.521 | 0.545 | 0.514 | 0.876 | 0.937 | 0.897 | 0.887 |
| LCLC-103H | 0.493 | 0.495 | 0.531 | 0.527 | 0.439 | 0.493 | 0.55 | 0.527 | 0.522 | 0.549 | 0.612 | 0.592 | 0.638 | 0.854 | 0.864 | 0.759 | 0.826 |
| IA-LM |  |  |  |  |  |  |  |  |  | 0.339 | 0.363 | 0.355 | 0.456 | 1.15 | 0.915 | 0.879 | 0.961 |
| NCI-H1299 |  |  |  |  |  |  |  |  |  | 0.876 | 0.763 | 0.815 | 0.657 |  |  |  |  |
| NCI-H1648 | 0.549 | 0.368 | 0.467 | 0.537 | 0.358 | 0.223 | 0.249 | 0.265 | 0.272 |  |  |  |  | 0.49 | 0.42 | 0.431 | 0.463 |
| NCI-H1703 |  |  |  |  |  |  |  |  |  | 0.245 | 0.267 | 0.249 | 0.205 |  |  |  |  |
| NCI-H2342 | 0.499 | 0.493 | 0.577 | 0.53 | 0.396 | 0.687 | 0.649 | 0.608 | 0.585 |  |  |  |  | 0.733 | 0.659 | 0.802 | 0.739 |
| NCI-H1623 | 0.44 | 0.407 | 0.301 | 0.451 | 0.201 | 0.42 | 0.456 | 0.528 | 0.409 |  |  |  |  |  |  |  |  |
| SW 900 |  |  | 0.663 | 0.627 | 0.59 | 0.547 | 0.643 | 0.523 | 0.764 |  |  |  |  |  | 0.41 | 0.494 | 0.553 |
| NCI-H1792 |  |  |  |  |  |  | 0.823 | 0.817 | 0.775 | 0.319 | 0.279 | 0.287 | 0.285 |  |  |  |  |
